Assay results taken from PubChem BioAssay (NCI).
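Interpolation was linear, between the two tested concentrations surrounding the appropriate level; five concentrations were tested over 48 hours in 96-well plates. Definition used: TGI = concentration required for complete inhibition of growth.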

Experiments:
Assay in all cases: inhibition of tumour cell growth, NCI panel, 48 h
[1] = system: 786-0 renal
[2] = system: A498 renal
[3] = system: A549 NSCLC
[4] = system: BT-549 breast
[5] = system: CAKI-1 renal
[6] = system: COLO 205 colon
[7] = system: DU-145 prostate
[8] = system: EKVX NSCLC
[9] = system: HCC-2998 colon
[10] = system: HCT-116 colon
[11] = system: HCT-15 colon
[12] = system: HL-60(TB) leukemia
[13] = system: HOP-92 NSCLC
[14] = system: HS 578T breast
[15] = system: HT29 colon
[16] = system: IGROV1 ovarian
[17] = system: K-562 leukemia
[18] = system: KM12 colon
[19] = system: LOX IMVI melanoma
[20] = system: M14 melanoma
[21] = system: MALME-3M melanoma
[22] = system: MCF7 breast
[23] = system: MDA-MB-231 breast
[24] = system: MDA-MB-435
[25] = system: MDA-N
[26] = system: MOLT-4 leukemia
[27] = system: NCI-H226 lung
[28] = system: NCI-H460 lung
[29] = system: NCI-H522 lung
[30] = system: NCI/ADR-RES ovarian
[31] = system: OVCAR-3 ovarian
[32] = system: OVCAR-4 ovarian
[33] = system: OVCAR-5 ovarian
[34] = system: OVCAR-8 ovarian
[35] = system: PC-3 prostate
[36] = system: RPMI-8226 leukemia
[37] = system: RXF 393 renal
[38] = system: SF-268 CNS
[39] = system: SF-539 CNS
[40] = system: SK-MEL-2 melanoma
[41] = system: SK-MEL-28 melanoma
[42] = system: SK-MEL-5 melanoma
[43] = system: SK-OV-3 ovarian
[44] = system: SN12C renal
[45] = system: SNB-19 CNS
[46] = system: SNB-75 CNS
[47] = system: SR leukemia
[48] = system: SW-620 colon
[49] = system: T-47D breast
[50] = system: TK-10 renal
[51] = system: U251 CNS
[52] = system: UACC-257 melanoma
[53] = system: UACC-62 melanoma
[54] = system: UO-31 renal
[55] = system: ACHN renal
[56] = system: HOP-62 NSCLC
[57] = system: SF-295 CNS

**Q.** For `Cc1c(C)c(C)c(-n2c(=O)n(C)c(=O)n2-n2c(=O)n(C)c(=O)n2-c2c(C)c(C)c(C)c(C)c2C)c(C)c1C`, which TGI [1] is on record?
**A.** The TGI was over 100 µM.

**Q.** What about the TGI [2] of the same compound?
**A.** The TGI was over 100 µM.

**Q.** And the TGI [3]?
**A.** The TGI was over 100 µM.

**Q.** What about the TGI [4] of the same compound?
**A.** Its TGI is over 100 µM.

**Q.** And the TGI [5]?
**A.** The TGI was over 100 µM.

**Q.** What about the TGI [6] of the same compound?
**A.** Its TGI is over 100 µM.

**Q.** And the TGI [7]?
**A.** Its TGI is over 100 µM.

**Q.** And the TGI [8]?
**A.** Its TGI is over 100 µM.

**Q.** And the TGI [9]?
**A.** Its TGI is over 100 µM.

**Q.** What about the TGI [10] of the same compound?
**A.** Its TGI is over 100 µM.

**Q.** What about the TGI [11] of the same compound?
**A.** Its TGI is over 100 µM.

**Q.** What about the TGI [12] of the same compound?
**A.** Its TGI is 68.7 µM.

**Q.** What about the TGI [13] of the same compound?
**A.** The TGI was over 100 µM.

**Q.** And the TGI [14]?
**A.** The TGI was over 100 µM.

**Q.** And the TGI [15]?
**A.** Its TGI is over 100 µM.

**Q.** What about the TGI [16] of the same compound?
**A.** The TGI was over 100 µM.

**Q.** What about the TGI [17] of the same compound?
**A.** Its TGI is over 100 µM.

**Q.** What about the TGI [18] of the same compound?
**A.** Its TGI is over 100 µM.

**Q.** What about the TGI [19] of the same compound?
**A.** Its TGI is over 100 µM.

**Q.** And the TGI [20]?
**A.** The TGI was over 100 µM.

**Q.** And the TGI [21]?
**A.** The TGI was over 100 µM.

**Q.** And the TGI [22]?
**A.** Its TGI is over 100 µM.

**Q.** And the TGI [23]?
**A.** Its TGI is over 100 µM.

**Q.** And the TGI [24]?
**A.** Its TGI is over 100 µM.

**Q.** What about the TGI [25] of the same compound?
**A.** Its TGI is over 100 µM.

**Q.** And the TGI [26]?
**A.** The TGI was over 100 µM.

**Q.** What about the TGI [27] of the same compound?
**A.** Its TGI is over 100 µM.

**Q.** And the TGI [28]?
**A.** Its TGI is over 100 µM.

**Q.** And the TGI [29]?
**A.** Its TGI is over 100 µM.

**Q.** What about the TGI [30] of the same compound?
**A.** Its TGI is over 100 µM.

**Q.** And the TGI [31]?
**A.** The TGI was over 100 µM.

**Q.** And the TGI [32]?
**A.** The TGI was over 100 µM.

**Q.** What about the TGI [33] of the same compound?
**A.** The TGI was over 100 µM.

**Q.** What about the TGI [34] of the same compound?
**A.** Its TGI is over 100 µM.

**Q.** And the TGI [35]?
**A.** The TGI was over 100 µM.

**Q.** What about the TGI [36] of the same compound?
**A.** Its TGI is over 100 µM.

**Q.** What about the TGI [37] of the same compound?
**A.** Its TGI is over 100 µM.

**Q.** What about the TGI [38] of the same compound?
**A.** The TGI was over 100 µM.

**Q.** What about the TGI [39] of the same compound?
**A.** The TGI was over 100 µM.

**Q.** What about the TGI [40] of the same compound?
**A.** Its TGI is over 100 µM.

**Q.** And the TGI [41]?
**A.** Its TGI is over 100 µM.

**Q.** What about the TGI [42] of the same compound?
**A.** The TGI was over 100 µM.

**Q.** And the TGI [43]?
**A.** The TGI was over 100 µM.

**Q.** What about the TGI [44] of the same compound?
**A.** The TGI was over 100 µM.

**Q.** And the TGI [45]?
**A.** The TGI was over 100 µM.

**Q.** And the TGI [46]?
**A.** Its TGI is over 100 µM.

**Q.** What about the TGI [47] of the same compound?
**A.** The TGI was over 100 µM.

**Q.** And the TGI [48]?
**A.** Its TGI is over 100 µM.

**Q.** What about the TGI [49] of the same compound?
**A.** Its TGI is over 100 µM.

**Q.** And the TGI [50]?
**A.** The TGI was over 100 µM.

**Q.** And the TGI [51]?
**A.** Its TGI is over 100 µM.

**Q.** And the TGI [52]?
**A.** The TGI was over 100 µM.

**Q.** What about the TGI [53] of the same compound?
**A.** The TGI was over 100 µM.

**Q.** And the TGI [54]?
**A.** The TGI was over 100 µM.

**Q.** Which results are given for `CC12O[C@]3([C@H](C(=O)N4CCOC43C)[C@H]1Cl)[C@H]1O[C@H]12` (some centres undefined)?
**A.** TGI [1]: > 100 µM; TGI [2]: > 100 µM; TGI [3]: > 100 µM; TGI [55]: > 100 µM; TGI [4]: > 100 µM; TGI [5]: > 100 µM; TGI [6]: 91.9 µM; TGI [7]: > 100 µM; TGI [8]: > 100 µM; TGI [9]: > 100 µM; TGI [10]: > 100 µM; TGI [11]: > 100 µM; TGI [12]: > 100 µM; TGI [56]: > 100 µM; TGI [13]: > 100 µM; TGI [14]: > 100 µM; TGI [15]: > 100 µM; TGI [16]: > 100 µM; TGI [17]: > 100 µM; TGI [18]: > 100 µM; TGI [19]: > 100 µM; TGI [20]: > 100 µM; TGI [22]: > 100 µM; TGI [23]: > 100 µM; TGI [24]: > 100 µM; TGI [25]: > 100 µM; TGI [26]: > 100 µM; TGI [27]: > 100 µM; TGI [28]: > 100 µM; TGI [29]: > 100 µM; TGI [30]: > 100 µM; TGI [31]: > 100 µM; TGI [32]: > 100 µM; TGI [33]: > 100 µM; TGI [34]: > 100 µM; TGI [35]: > 100 µM; TGI [36]: > 100 µM; TGI [38]: > 100 µM; TGI [57]: > 100 µM; TGI [39]: > 100 µM; TGI [40]: > 100 µM; TGI [41]: > 100 µM; TGI [42]: > 100 µM; TGI [43]: > 100 µM; TGI [44]: > 100 µM; TGI [45]: > 100 µM; TGI [46]: > 100 µM; TGI [47]: > 100 µM; TGI [48]: > 100 µM; TGI [49]: > 100 µM; TGI [50]: > 100 µM; TGI [51]: > 100 µM; TGI [52]: > 100 µM; TGI [53]: > 100 µM; TGI [54]: > 100 µM
